Patent publication US4654368A, “Tri-organotin silatrane derivatives and pesticidal compositions, fungicides or antifouling agents comprising said compounds as active ingredients” (Nitto Kasei Co., Ltd., priority 1984, dated 1987)

How the values were obtained:
[1] = tested on: Aspergillus niger ATCC 6275; experiment: Test on fungicidal effect on fungi (agar medium diluting method); assay type: cell-based; details: PDA, 27° C., cultivation period 4 days
Protocol: (§1) By an agar medium diluting method, the fungicidal activities of compounds Nos. 12, 17, 18, 23, 24, 26, 27 and 32 of the invention on fungi doing harm to industrial products and materials were examined.
(§2) A hypha piece, 5 mm in diameter, of each of the fungi indicated in Table 3 was inoculated in a potato dextrose agar medium (PDA) containing each of the above compounds, and cultivated at 27° C. After the lapse of a predetermined period, the growth state of the fungus was observed, and the minimum inhibitory concentration of the compound was determined.

[2] = tested on: Caetomium globosum ATCC 6205; experiment: as above; assay type: cell-based; details: PDA, 27° C., cultivation period 3 days (compound 18: 4 days)
Protocol: as §1, §2

[3] = tested on: Cladosporium herbarum TAMF 517; experiment: as above; assay type: cell-based; details: PDA, 27° C., cultivation period 4 days
Protocol: as §1, §2

[4] = tested on: Penicillium citrinum ATCC 9849; experiment: as above; assay type: cell-based; details: PDA, 27° C., cultivation period 4 days
Protocol: as §1, §2

Plasmopara viticola = experiment: Test on fungicidal effect on downy mildew of grape; assay type: in vivo; details: sprayed on grape seedlings
Text: Sandy soil was filled in plastic pots, and seeds of grape (variety: Neomuscat) were sown, and grown for about 1 month in a greenhouse to obtain young seedlings of grape in the 2-3 leaf stage. A water dilution of an emulsifiable concentrate of a wettable powder of each of the test compounds was sprayed onto the leaves of these seedlings so that the chemical adhered fully to the surfaces of the leaves. After drying the chemical in air, a suspension of conidospores of a […] pathogen of grape (Plasmopara viticola) was inoculated in the seedling by spraying. The seedlings were placed for 2 days in a high humidity condition at 23° C., and subsequently cultivated for 14 days in a greenhouse kept at 20° to 25° C. to cause onset of the disease. Thereafter, the state of the disease was observed.
The degree of disease was calculated by the following method. The examined leaves were classified by indices of 0, 0.5, 1, 2 and 4 according to the degrees of appearance of lesions, and the degree of disease was calculated from the following equation.
0: No fungus colony or lesion was noted on the surface of the leaves.
The control index was calculated from the following equation. [formula]

[5] = tested on: tobacco cutworms (Prodenia litura Fabrficius); experiment: Test on insecticidal efficacy on tobacco cutworms; assay type: in vivo; details: 500 ppm in artificial feed, 4th-instar larvae, 6 days; wettable powder of Formulation Example 5 (contains Fenitrothion)
Protocol: A wettable powder of each of compounds Nos. 3, 7, 8, 9, 11, 12, 13, 14, 17, 18 and 31 of the invention obtained in accordance with Formulation Example 5 was diluted with water to 200 times (corresponding to a concentration of 500 ppm). Two milliliters of the dilution was impregnated in 13 g of an artificial feed for tobacco cutworms, and the feed was put in a polyethylene cup having a diameter of 11 cm. Ten 4th-instar larvae of tobacco cutworms were released into the cup, and examined for mortality 6 days later. The above experiment was carried out through two replicates.

[6] = tested on: carmine mites (Tetranychus telarius L.); experiment: Miticidal effect on carmine mites; assay type: in vivo; design: key: -: Hardly any injury was observed.; +: Some injury was observed.; ++: The same injury as in the non-treated area was noted; details: 500 ppm active ingredient, spray plus soil, kidney beans, 8 days later
Protocol: Female imagoes of carmine mites were caused to live at a rate of 10 per leaf on bineless kidney beans (in the primary leaf stage) in pots 7 days after sowing, and kept in a constant temperature chamber at 25° C. Six days later, a chemical obtained by diluting a wettable powder of each of compounds Nos. 4-6, 9-13, 15, 16, 21, 22, 25, 28-30, 33, 34, 36, 37 and 38 with water to an active ingredient concentration of 500 ppm was sprayed at a rate of 10 ml per pot, and at the same time, 2 ml of the chemical was poured into the soil. Eight days later, injuries to the plants by the mites were examined.
The degree of injury is shown by -, + and ++ as follows: […]

Culex pipiens = experiment: Test on insecticidal effect on Culex pipiens; assay type: in vivo; details: 3.5 ppm, wettable powder of Formulation Example 5 (contains Fenitrothion); for Death rate: final-instar larvae, next day, 1440 min; for Emergence inhibition rate: when all larvae in non-treated area emerged
Protocol: A wettable powder of each of compounds Nos. 2, 7, 8, 11, 13, 14, 17, 18 and 31 obtained in accordance with Formulation Example 5 was diluted with water to 3.5 ppm. One hundred milliliters of the dilution was put in each of 180 ml. polyethylene cups and 20 final-instar larvae of Culex pipiens were released into the cup. On the next day, the larvae were examined for mortality.
Thereafter, feeds were added to the test areas, and when all larvae n the non-treated area emerged, the emergence inhibition rate was examined.
The death rate and the emergence inhibition rate were rated by three grades as follows: […]

[7] = tested on: marine animals and plants; experiment: Test on antifouling effects on marine animals and plants in the sea; assay type: in vivo; details: antifouling paint on vinyl chloride plate, Owase Bay
Protocol: A ship bottom antifouling paint was prepared by adding 24 g of Rosin WW, 12 g of a vinyl copolymer, 4 g of tricresyl phosphate, 10 g of bentonite, 20 g of baryta, 20 g of red iron oxide, 35 g of xylene and 35 g of methyl isobutyl ketone to 40 g of each of compounds Nos. 2, 8, 14, 17, 20 and 32 of the invention and vigorously stirring the mixture at room temperature for 1 hour. The paint was coated on both surfaces of a rigid vinyl chloride resin plate, 17×9×0.3 cm in size, to a dry thickness of about 200 microns. The coated plate was submerged in the sea in Owase Bay, Mie Prefecture, Japan for 12 months, and its fouled state was regularly observed.
The symbols in the table show the following.

Row | SMILES | Minimum inhibitory concentration [1] [ppm] | Minimum inhibitory concentration [2] [ppm] | Minimum inhibitory concentration [3] [ppm] | Minimum inhibitory concentration [4] [ppm] | Control index (Plasmopara viticola; 12.5 ppm active ingredient) [%] | Control index (Plasmopara viticola; 50 ppm active ingredient) [%] | Control index (Plasmopara viticola; 200 ppm active ingredient) [%] | Death rate [5] [%] | Degree of injury [6] | Death rate (Culex pipiens) | Emergence inhibition rate (Culex pipiens) | Fouled state, period of submerging 4 months [7] | Fouled state, period of submerging 8 months [7] | Fouled state, period of submerging 12 months [7]
1 | CC(C)[CH2][Sn]([CH2]C(C)C)([CH2]C(C)C)[S]CCC[Si]12OC(C)CN(CC(C)O1)CC(C)O2 (stereo not shown) [compound 27] | < 12.5 | < 12.5 | < 12.5 | < 12.5 |  |  |  |  |  |  |  |  |  | 
2 | CCC[CH2][Sn]([CH2]CCC)([CH2]CCC)[S]CCC[Si]12OCCN(CCO1)CC(C)O2 (stereo not shown) [compound 24] | < 12.5 | < 12.5 | < 12.5 | < 12.5 |  |  |  |  |  |  |  |  |  | 
3 | CCC[CH2][Sn]([CH2]CCC)([CH2]CCC)[S]CCC[Si]12OC(C)CN(CC(C)O1)CC(C)O2 (stereo not shown) [compound 12] | < 12.5 | < 12.5 | < 12.5 | < 12.5 | 100 | 100 | 100 | 100 | - |  |  |  |  | 
4 | CC(C)[CH2][Sn]([CH2]C(C)C)([CH2]C(C)C)[S]CCC[Si]12OCCN(CCO1)CCO2 [compound 26] | < 12.5 | < 12.5 | < 12.5 | < 12.5 |  |  |  |  |  |  |  |  |  | 
5 | CC[CH2][Sn]([CH2]CC)([CH2]CC)[S]CCC[Si]12OCCN(CCO1)CCO2 [compound 17] | < 2.5 | < 2.5 | < 12.5 | < 2.5 |  |  |  | 100 |  | C (less than 10%) | A (90% or higher) | .circle. | .circle. | .circle.
6 | CCC1CN2CC(C)O[Si](CCC[S][Sn]([c]3ccccc3)([c]3ccccc3)[c]3ccccc3)(OC(C)C2)O1 (stereo not shown) [compound 32] | < 12.5 | < 12.5 | < 12.5 | < 12.5 |  |  |  |  |  |  |  | .circle. | .circle. | .circle.
7 | CC[CH2][Sn]([CH2]CC)([CH2]CC)[S]CCC[Si]12OC(C)CN(CC(C)O1)CC(C)O2 (stereo not shown) [compound 18] | < 2.5 | < 12.5 | < 12.5 | < 12.5 |  |  |  | 100 |  | B (less than 90% to 10%) | A (90% or higher) |  |  | 
8 | CC[CH2][Sn]([CH2]CC)([CH2]CC)[S]CCC[Si]12OCCN(CC(CC)O1)CC(CC)O2 (stereo not shown) [compound 23] | < 2.5 | < 2.5 | < 2.5 | < 2.5 |  |  |  |  |  |  |  |  |  | 
